Assay results taken from paper PMC7215935, “GM1 Oligosaccharide Crosses the Human Blood–Brain Barrier In Vitro by a Paracellular Route” (International Journal of Molecular Sciences, 2020).

What was measured:
[1] = Inverse transport (basolateral to apical, B → A) across hBLECs and efflux ratio; format: in vitro ADME, human; conditions: human, pH 7.4; 50 μM in basolateral compartment, 60 min (Figure 7)
Method: For the inverse transport study (related to basolateral → apical flux, B → A), 1.5 mL of 1 × 10^6 dpm of tritiated [^3H]OligoGM1 plus 50 μM OligoGM1 in RH buffer were added to an empty well of a 12-well plate (Figure S3c). Every 20 min up to 60 min, the hBLEC filter filled with 0.5 mL RH buffer was removed and replaced with a new filter with fresh RH buffer.
The apparent permeability, efflux ratio, and endothelial permeability were calculated to estimate the absorption processes of drugs, to predict implication of active transport in the process of drugs absorption, and to more accurately appreciate the transport of a drug across an endothelial barrier, respectively. Detailed information on the equations used to calculate the permeability parameters are reported in the Supplementary Information. […]
where (∆Q/∆t) (μmol/sec) is the rate of permeation (quantity per second) of a molecule across the cell layer, C0 (μmol/cm3) is the donor compartment concentration at time zero and S (cm2) is the area of […]
In the transwell insert system there are two compartments and, analyzing the absorption of a substance, the apparent permeability index can be obtained for the apical to basolateral transport, Papp A → B, and for the inverse, basolateral to apical transport Papp B → A.
To define Papp (1), the Fick's law could be used, which describes the transport of substances through a semipermeable membrane. Given that the initial concentration of the solute in the donor compartment is much higher than the one in the receiver compartment (equal to 0 at t0), and assuming that the solute equally partitions in the two compartments, for small variation of C0, it is possible to integrate and simplify the Fick’s equation to obtain as follows: […]
where ∆Q/∆t corresponds to the amount of solute that crosses the membrane over time, D is the diffusion coefficient of the substance in water, S is the membrane surface, h its thickness and C0 is the concentration of the solute which approximates the initial concentration C0.
The equation (2) can be rewritten as: […]

TrkA-ERK1/2 pathway = TrkA-ERK1/2 pathway activation in N2a cells (immunoblotting); format: cell-based, mouse; conditions: basolateral solution
Method: Precisely, [^3H]OligoGM1 (1 × 10^6 dpm) diluted into cold OligoGM1 solution (300 µM) was administered for 240 min to hBLECs in the upper compartment so that at a volume of 0.5 mL there was 150 nmol of OligoGM1. […] After the 240 min incubation period, the basolateral solution was screened to find the quantity of crossed OligoGM1 by measuring ^3H-radioactivity and was then administered to N2a cells for 24 h. For control cells, we administered a basolateral solution derived from hBLECs incubated with Transfectagro without OligoGM1. Morphological signals of neurodifferentiation were evaluated by cell observation and TrkA-ERK1/2 pathway activation was verified by immunoblotting (for procedural details see Supplementary Materials and [22, 23]).
Caco-2 cells are not listed as commonly misidentified cell line by the International Cell Line Authentication Committee. However it is reported that culture condition and cell origin can deeply affect Caco-2 morphology and behavior [4-6]. […]
Since mycoplasma could infect of Caco-2 cells, we validated the absence of any contamination by two methods (data not shown). […] Briefly culture supernatants were mixed with MycoAlert reagents according to manufacturer instruction and the luminescence was measured after 10 min using fluorimeter (BioTek, H1, Vermont, Winooski). […]
It is calculated according to the equation (1): […]

MRPs = experiment: ABC transporter competition assay (Caco-2 pump out), CMFDA efflux; conditions: Caco-2 cells, 10, 50 and 100 μM, vs control
Method: Briefly, Caco-2 cells in 96-well plates were washed once with RH buffer and incubated for 120 min with 10 µM R123 or for 15 min with 0.5 µM CMFDA. R123 and CMFD are substrates for the major efflux pumps expressed by BBB and intestine cells, i.e., P-gp/BCRP and MRPs, respectively. After the incubation period, Caco-2 cells were washed twice with RH buffer with or without test compounds (OligoGM1 at 10, 50, and 100 µM). The rate out (Kout) of Caco-2 cells for fluorescent dyes was monitored by fluorescence measurement (λex = 501 nm and λem = 538 nm for R123; λex = 485 nm and λem = 538 nm for CMFDA) using a microplate fluorescent reader (BioTek, H1, Vermont, Winooski). The amount of dye expelled from the cells was measured at 37 °C and every 5 min for one hour for R123 and every 2 min for 30 min for CMFDA. The rate out of the dye from cells was calculated as the slope of the curve of the cumulative amount of dye against the time (Kout = ∆pmol⁄∆t) and compared with the value in the presence of test compounds.

Papp B→A at 60 min, 50 μM [1]: 8.7 ± 1.4 ×10⁻⁶ cm/s
Compound: CC(=O)NC1C(O)CC(OC2C(O)C(OC3C(CO)OC(O)C(O)C3O)OC(CO)C2OC2OC(CO)C(O)C(OC3OC(CO)C(O)C(O)C3O)C2NC(C)=O)(C(=O)O)OC1C(O)C(O)CO (stereo not drawn) [OligoGM1, β-Gal-(1-3)-β-GalNAc-(1-4)-[α-Neu5Ac-(2-3)]-β-Gal-(1-4)-β-Glc]
TrkA-ERK1/2 pathway (pTrkA, pERK1/2) (TrkA-ERK1/2 pathway): activation of the TrkA-ERK1/2 pathway
effect on efflux (Kout) of CMFDA (MRPs): did not identify any difference
